{"source": "paper PMC8126637", "about": "(Frontiers in Molecular Biosciences, 2021)", "biological_target": "T1, Universal stress protein (USP, Rv1636) (Mycobacterium tuberculosis, UniProt P9WFC9)", "T1 construct": "His-tagged Rv1636", "T1 sequence (P9WFC9 whole entry)": "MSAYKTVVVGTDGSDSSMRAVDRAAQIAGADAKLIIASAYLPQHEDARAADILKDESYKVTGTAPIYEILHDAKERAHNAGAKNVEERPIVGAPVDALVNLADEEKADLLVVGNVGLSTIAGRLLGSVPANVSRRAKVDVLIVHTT", "experiment": "biochemical", "assay_type": "binding"}
{"compound": "COc1cc(/C=C/C(=O)CC(=O)/C=C/c2ccc(O)c(OC)c2)ccc1O", "note": "[Curcumin]", "values": [{"measurement": "Kd", "value": "17.4 ± 0.8", "unit": "µM"}]}
{"compound": "COc1cc2c(cc1OC)-c1cc(NCCCCN)nc(=O)n1CC2", "note": "[compound 19, 2-((4-aminobutyl)amino)-9,10-dimethoxy-6,7-dihydro-4H-pyrimido[6,1-a]isoquinolin-4-one]", "values": [{"measurement": "Kd", "value": "998 ± 82", "unit": "µM"}]}
{"compound": "NC(=O)NCCC[C@@H](NC(=O)CCn1ccc2c(Cl)cccc21)C(=O)O", "note": "[compound 20, (R)-2-(3-(4-chloro-1H-indol-1-yl)propanamido)-5-ureidopentanoic acid]", "values": [{"measurement": "Kd", "value": "1720 ± 731", "unit": "µM"}]}
